The nature of data set [1]: Dark toxicity against human HeLa cells assessed as reduction in cell viability after 48 hrs by MTT assay. It counts as cell-based. (Tetrazolium assays rely on reduction of a dye to a coloured formazan, in cell work by metabolically active cells.)
A further data set deals with HeLa. As to the kind of experiment: Phototoxicity against human HeLa cells assessed as reduction in cell viability preincubated for 1 hr followed by LED light irradiation at 8 +/- 0.5 mW/cm2 for 15 mins and measured after 48 hrs by MTT assay. It counts as functional, cell-based. Particulars: light or radiation study.
A short description of data set [2]: Drug uptake mitochondria of in human HeLa cells at 10 uM after 1 hr by Mito tracker red-based confocal microscopic analysis. It counts as ADME.
Data set [3] can be described thus: Drug uptake lysosome of in human HeLa cells at 10 uM after 1 hr by Lyso tracker red-based confocal microscopic analysis. It counts as ADME, subcellular.
Data set [4] can be described thus: Aggregation property of the compound in potassium phosphate buffer assessed as particle size at 10 uM by DLS method. It counts as physicochemical.
Data set [5] can be described thus: Drug uptake in human HeLa cells at 20 uM by fluorescence assay. It is filed as ADME, cell-based. The conditions noted are these: TDE = time-dependent effect.
A short description of data set [6]: Drug uptake in human HeLa cells at 20 uM at 37 degC after 1 hr by fluorescence assay. It counts as ADME, cell-based.
Data set [7] is described as follows: Drug uptake in human HeLa cells at 20 uM at 4 degC after 1 hr by fluorescence assay. It is filed as ADME, cell-based.
Data set [8] is described as follows: Drug uptake in human HeLa cells at 20 uM after 1 hr in presence of lipid raft inhibitor methyl-beta-cyclodextrin by fluorescence assay. It counts as ADME, cell-based.
A short description of data set [9]: Induction of singlet oxygen production irradiated with 425 to 479 nm Nd:YAG laser light measured after 100 nanoseconds post irradiation. It counts as functional.
A short description of data set [10]: Drug uptake in human HeLa cells at 20 uM after 1 hr in presence of sucrose by fluorescence assay. It counts as ADME, cell-based.

The source made the active and inactive calls. No cut-off for these calls is given here.

Broadly, the IC50 is the concentration that gives 50% inhibition. On to `CC(C)(C)OC(=O)/C(C#N)=C/c1ccc(-c2ccc(-c3ccc(N(c4ccccc4)c4ccccc4)cc3)s2)s1`, for which, in data set [1], the IC50 at 48 h was over 100 µM. Also, in the data set with HeLa, the IC50 is over 100 µM. For the same molecule, the Drug uptake entry in data set [2] and in data set [3] was “Not Active” throughout. The Activity result in data set [4] was “Not Active”.

With `N#C/C(=C\c1ccc(-c2ccc(-c3ccc(N(c4ccccc4)c4ccccc4)cc3)s2)s1)C(=O)O`, in data set [1], the IC50 at 48 h amounted to 21.9 µM. For the same molecule, the IC50 in the data set with HeLa stood at 0.21 µM. Moreover, the Drug uptake result in data set [2] is given as “Active”; in [3], “Active”; in [5], “Tde”; in data set [6] it was “Active”; in data set [7] it was “Not Active”; in [8] it was “Not Active”. In addition, in [10], the Drug uptake entry is listed as “Not Active”. The Activity in data set [4] amounted to 175 nm. Moreover, the outcome in [9] was Active.

Take `O=Cc1ccc(-c2ccc(-c3ccc(N(c4ccccc4)c4ccccc4)cc3)s2)s1`: in data set [1], the IC50 at 48 h stood at 88.9 µM. For the same molecule, in the data set on HeLa, the IC50 was 9.5 µM. In addition, the Drug uptake result in data set [2] and in data set [3] was “Not Active” throughout. Further, the Activity entry in data set [4] is reported as “Not Active”.

With `N#C/C(=C\c1ccc(-c2ccc(-c3ccc(N(c4ccccc4)c4ccccc4)cc3)s2)s1)C(N)=O`, the IC50 at 48 h in [1] came out at 63.1 µM. Moreover, the IC50 in the data set on HeLa was 8.8 µM. For the same molecule, the Drug uptake result in [2] was “Active”; in data set [3], “Active”; in [6], “Active”; in data set [7], “Not Active”; in data set [8], “Active”; in data set [10], “Not Active”. Further, the Activity in [4] stood at 1175 nm.

Turning to `COC(=O)/C(C#N)=C/c1ccc(-c2ccc(-c3ccc(N(c4ccccc4)c4ccccc4)cc3)s2)s1`, in [1], the IC50 at 48 h was over 100 µM. Also, the IC50 in the data set with HeLa is over 100 µM. Moreover, the Drug uptake entry in [2] and in data set [3] was “Not Active” each time. Besides, the Activity result in data set [4] is listed as “Not Active”.
